21 compounds from patent publication US11918581B2, “Combination therapy comprising JAK pathway inhibitor and rock inhibitor” (Incyte Corporation, priority 2021, dated 2024) can be followed below.

For orientation: pIC50 means the negative decadic logarithm of the IC50, by convention in mol/L.

In assay [1] the target is human JAK1 (a.a. 837-1142) (Homo sapiens, UniProt P23458). Description: In vitro JAK kinase assay (HTRF), JAK1. Type of assay: biochemical. To be noted: 1 mM ATP. In general terms: Time-resolved FRET reads energy transfer from a long-lived donor to a nearby acceptor.
Description: (§1) The catalytic activity of JAK1, JAK2, or JAK3 was assayed by measuring the phosphorylation of a biotinylated peptide. The phosphorylated peptide was detected by homogenous time resolved fluorescence (HTRF). […] Reactions are carried out at room temperature for 1 hour and then stopped with 20 μL 45 mM EDTA, 300 nM SA-APC, 6 nM Eu-Py20 in assay buffer (Perkin Elmer, Boston, MA). Binding to the Europium labeled antibody takes place for 40 minutes and HTRF signal was measured on a Fusion plate reader (Perkin Elmer, Boston, MA).
Assay [2] deals with human JAK2 (a.a. 828-1132) (Homo sapiens (Human), UniProt O60674). The experiment in a line: In vitro JAK kinase assay (HTRF), JAK2. Type of assay: biochemical. To be noted: JAK2/JAK1 IC50 ratio, 1 mM ATP.
Description: as §1

The structures appear in SMILES notation. pIC50: −log10 of the molar value.

Sequence of human JAK2 (a.a. 828-1132) (O60674 828-1132): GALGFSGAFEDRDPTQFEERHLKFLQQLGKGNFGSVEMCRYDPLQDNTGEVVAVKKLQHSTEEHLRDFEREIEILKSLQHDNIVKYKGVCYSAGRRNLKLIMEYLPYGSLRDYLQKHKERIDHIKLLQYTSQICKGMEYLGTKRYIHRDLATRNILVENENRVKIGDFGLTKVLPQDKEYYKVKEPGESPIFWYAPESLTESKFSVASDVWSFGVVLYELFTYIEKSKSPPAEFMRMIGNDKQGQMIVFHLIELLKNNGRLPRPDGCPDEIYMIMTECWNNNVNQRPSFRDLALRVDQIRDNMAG

Compound `N#CCC(C1CCN(c2cccc(Cl)n2)C1)n1cc(-c2ncnc3[nH]ccc23)cn1` (single isomer, unassigned) [Compound 6, 3-[1-(6-chloropyridin-2-yl)pyrrolidin-3-yl]-3-[4-(7H-pyrrolo[2,3-d]pyrimidin-4-yl)-1H-pyrazol-1-yl]propanenitrile] had a pIC50 in assay [1] above 8.00. For the same compound, the JAK2/JAK1 in assay [2] is given as above 10.

As for `N#CCC1(n2cc(-c3ncnc4[nH]ccc34)cn2)CN(C2CCN(C(=O)Nc3ccc(F)cc3C(F)(F)F)CC2)C1` [Compound 2, 4-{3-(Cyanomethyl)-3-[4-(7H-pyrrolo[2,3-d]pyrimidin-4-yl)-1H-pyrazol-1-yl]azetidin-1-yl}-N-[4-fluoro-2-(trifluoromethyl)phenyl] piperidine-1-carboxamide], the pIC50 in assay [1] is above 8.00. For the same compound, the JAK2/JAK1 in assay [2] is on record as above 10.

For the compound `N#CCC1(n2cc(-c3ncnc4[nH]ccc34)cn2)CN(C2CCN(C(=O)c3ccnc(C(F)(F)F)n3)CC2)C1` [Compound 3, [3-[4-(7H-pyrrolo[2,3-d]pyrimidin-4-yl)-1H-pyrazol-1-yl]-1-(1-{[2-(trifluoromethyl)pyrimidin-4-yl]carbonyl}piperidin-4-yl)azetidin-3-yl]acetonitrile], the pIC50 in assay [1] is above 8.00. Further, in assay [2], the JAK2/JAK1 is listed as above 10.

As to `C[C@@H](O)c1nc2cnc3ccsc3c2n1[C@H]1CC[C@H](CC#N)OC1` [Compound 5, ((2R,5S)-5-{2-[(1R)-1-hydroxyethyl]-1H-imidazo[4,5-d]thieno[3,2-b]pyridin-1-yl}tetrahydro-2H-pyran-2-yl)acetonitrile], the negative logarithm of the IC50 (pIC50) in assay [1] is above 7.00. Moreover, the JAK2/JAK1 in assay [2] is recorded as above 10.

As for `N#CCC(C1CCN(c2nc3cccnc3o2)C1)n1cc(-c2ncnc3[nH]ccc23)cn1` (stereo not drawn) [Compound 7, 3-(1-[1,3]oxazolo[5,4-b]pyridin-2-ylpyrrolidin-3-yl)-3-[4-(7H-pyrrolo[2,3-d]pyrimidin-4-yl)-1H-pyrazol-1-yl]propanenitrile], the negative logarithm of the IC50 (pIC50) in assay [1] was above 8.00. Besides, the JAK2/JAK1 in assay [2] is above 10.

For the compound `N#CCC(CN1CCN(C(=O)c2ccc(C#N)cc2F)CC1)n1cc(-c2ncnc3[nH]ccc23)cn1` (stereo not drawn) [Compound 8, 4-[(4-{3-cyano-2-[4-(7H-pyrrolo[2,3-d]pyrimidin-4-yl)-1H-pyrazol-1-yl]propyl}piperazin-1-yl)carbonyl]-3-fluorobenzonitrile], in assay [1], the pIC50 is above 8.00. For the same compound, the JAK2/JAK1 in assay [2] is on record as above 10.

For `N#CCC(CN1CCN(C(=O)c2ccc(C#N)cc2F)CC1)n1ccc(-c2ncnc3[nH]ccc23)c1` (stereo not drawn) [Compound 9, 4-[(4-{3-cyano-2-[3-(7H-pyrrolo[2,3-d]pyrimidin-4-yl)-1H-pyrrol-1-yl]propyl}piperazin-1-yl)carbonyl]-3-fluorobenzonitrile], the pIC50 in assay [1] is above 8.00. In addition, in assay [2], the JAK2/JAK1 is recorded as above 10.

The compound `N#CC[C@]1(n2cc(-c3ncnc4[nH]ccc34)cn2)C[C@H](N2CCN(C(=O)c3ccnc(C(F)(F)F)n3)CC2)C1` [Compound 10, [trans-1-[4-(7H-pyrrolo[2,3-d]pyrimidin-4-yl)-1H-pyrazol-1-yl]-3-(4-{[2-(trifluoromethyl)pyrimidin-4-yl]carbonyl}piperazin-1-yl)cyclobutyl]acetonitrile] showed a negative-log IC50 (pIC50) in assay [1] above 8.00. For the same compound, in assay [2], the JAK2/JAK1 was above 10.

In assay [1], `N#CC[C@]1(n2cc(-c3ncnc4[nH]ccc34)cn2)C[C@H](N2CCC(Oc3cc(CN4CC(O)C4)cc(C(F)(F)F)n3)CC2)C1` [Compound 11, {trans-3-(4-{[4-[(3-hydroxyazetidin-1-yl)methyl]-6-(trifluoromethyl)pyridin-2-yl]oxy}piperidin-1-yl)-1-[4-(7H-pyrrolo[2,3-d]pyrimidin-4-yl)-1H-pyrazol-1-yl]cyclobutyl}acetonitrile] showed a pIC50 above 8.00. Also, the JAK2/JAK1 in assay [2] is recorded as above 10.

Compound `N#CC[C@]1(n2cc(-c3ncnc4[nH]ccc34)cn2)C[C@H](N2CCC(Oc3cc(CN4CCC[C@H]4CO)cc(C(F)(F)F)n3)CC2)C1` [Compound 12, {trans-3-(4-{[4-{[(2S)-2-(hydroxymethyl)pyrroli-din-1-yl]methyl}-6-(trifluoromethyl)pyridin-2-yl]oxy}piperidin-1-yl)-1-[4-(7H-pyrrolo[2,3-d]pyrimidin-4-yl)-1H-pyrazol-1-yl]cyclobutyl}acetonitrile] showed a negative-log IC50 (pIC50) in assay [1] above 8.00. Besides, in assay [2], the JAK2/JAK1 is above 10.

`N#CC[C@]1(n2cc(-c3ncnc4[nH]ccc34)cn2)C[C@H](N2CCC(Oc3cc(CN4CCC[C@@H]4CO)cc(C(F)(F)F)n3)CC2)C1` [Compound 13, {trans-3-(4-{[4-{[(2R)-2-(hydroxymethyl)pyrroli-din-1-yl]methyl}-6-(trifluoromethyl)pyridin-2-yl]oxy}piperidin-1-yl)-1-[4-(7H-pyrrolo[2,3-d]pyrimidin-4-yl)-1H-pyrazol-1-yl]cyclobutyl}acetonitrile]: the pIC50 in assay [1] is above 8.00. Also, the JAK2/JAK1 in assay [2] is on record as above 10.

As to `C[C@H](NC(=O)c1cc(F)c(N2CC(CC#N)(n3cc(-c4ncnc5[nH]ccc45)cn3)C2)cc1F)C(F)(F)F` [Compound 16, 4-{3-(cyanomethyl)-3-[4-(7H-pyrrolo[2,3-d]pyrimidin-4-yl)-1H-pyrazol-1-yl]azetidin-1-yl}-2,5-difluoro-N-[(1S)-2,2,2-trifluoro-1-methylethyl]benzamide], the negative-log IC50 (pIC50) in assay [1] is above 8.00. Further, the JAK2/JAK1 in assay [2] is reported as above 10.

For `N#CCC1(n2cc(-c3ncnc4[nH]ccc34)cn2)CN([C@H]2CC[C@@H](Oc3cc(CCO)nc(C(F)(F)F)n3)CC2)C1` [Compound 18, {1-(cis-4-{[6-(2-hydroxyethyl)-2-(trifluoromethyl)pyrimidin-4-yl]oxy}cyclohexyl)-3-[4-(7H-pyrrolo[2,3-d]pyrimidin-4-yl)-1H-pyrazol-1-yl]azetidin-3-yl}acetonitrile], the pIC50 in assay [1] was above 8.00. The JAK2/JAK1 in assay [2] is above 10.

Consider `CCNCc1cc(O[C@H]2CC[C@@H](N3CC(CC#N)(n4cc(-c5ncnc6[nH]ccc56)cn4)C3)CC2)nc(C(F)(F)F)c1` [Compound 19, {1-(cis-4-{[4-[(ethylamino)methyl]-6-(trifluoromethyl)pyridin-2-yl]oxy}cyclohexyl)-3-[4-(7H-pyrrolo[2,3-d]pyrimidin-4-yl)-1H-pyrazol-1-yl]azetidin-3-yl}acetonitrile], for which the pIC50 in assay [1] was above 8.00. The JAK2/JAK1 in assay [2] was above 10.

In turn, `CC(C)(O)c1cc(O[C@H]2CC[C@@H](N3CC(CC#N)(n4cc(-c5ncnc6[nH]ccc56)cn4)C3)CC2)nc(C(F)(F)F)c1` [Compound 20, {1-(cis-4-{[4-(1-hydroxy-1-methylethyl)-6-(trifluoromethyl)pyridin-2-yl]oxy}cyclohexyl)-3-[4-(7H-pyrrolo[2,3-d]pyrimidin-4-yl)-1H-pyrazol-1-yl]azetidin-3-yl}acetonitrile] showed a pIC50 in assay [1] above 8.00. Also, in assay [2], the JAK2/JAK1 was above 10.

Compound `N#CCC1(n2cc(-c3ncnc4[nH]ccc34)cn2)CN([C@H]2CC[C@@H](Oc3cc(CN4CC[C@@H](O)C4)cc(C(F)(F)F)n3)CC2)C1` [Compound 21, {1-(cis-4-{[4-{[(3R)-3-hydroxypyrrolidin-1-yl]methyl}-6-(trifluoromethyl)pyridin-2-yl]oxy}cyclohexyl)-3-[4-(7H-pyrrolo[2,3-d]pyrimidin-4-yl)-1H-pyrazol-1-yl]azetidin-3-yl}acetonitrile] gave a pIC50 in assay [1] above 8.00. Further, the JAK2/JAK1 in assay [2] is above 10.

`N#CCC1(n2cc(-c3ncnc4[nH]ccc34)cn2)CN([C@H]2CC[C@@H](Oc3cc(CN4CC[C@H](O)C4)cc(C(F)(F)F)n3)CC2)C1` [Compound 22, {1-(cis-4-{[4-{[(3S)-3-hydroxypyrrolidin-1-yl]methyl}-6-(trifluoromethyl)pyridin-2-yl]oxy}cyclohexyl)-3-[4-(7H-pyrrolo[2,3-d]pyrimidin-4-yl)-1H-pyrazol-1-yl]azetidin-3-yl}acetonitrile]: in assay [1], the pIC50 was above 8.00. For the same compound, the JAK2/JAK1 in assay [2] was above 10.

Compound `C[C@@H](CO)NCc1cc(OC2CCN([C@H]3C[C@](CC#N)(n4cc(-c5ncnc6[nH]ccc56)cn4)C3)CC2)nc(C(F)(F)F)c1` [Compound 23, {trans-3-(4-{[4-({[(1S)-2-hydroxy-1-methylethyl]amino}methyl)-6-(trifluoromethyl)pyridin-2-yl]oxy}piperidin-1-yl)-1-[4-(7H-pyrrolo[2,3-d]pyrimidin-4-yl)-1H-pyrazol-1-yl]cyclobutyl}acetonitrile] showed a pIC50 in assay [1] above 8.00. The JAK2/JAK1 in assay [2] is above 10.

In turn, `C[C@@H](O)CNCc1cc(OC2CCN([C@H]3C[C@](CC#N)(n4cc(-c5ncnc6[nH]ccc56)cn4)C3)CC2)nc(C(F)(F)F)c1` [Compound 24, {trans-3-(4-{[4-({[(2R)-2-hydroxypropyl]amino}methyl)-6-(trifluoromethyl)pyridin-2-yl]oxy}piperidin-1-yl)-1-[4-(7H-pyrrolo[2,3-d]pyrimidin-4-yl)-1H-pyrazol-1-yl]cyclobutyl}acetonitrile] had a negative logarithm of the IC50 (pIC50) in assay [1] above 8.00. For the same compound, the JAK2/JAK1 in assay [2] is reported as above 10.

`C[C@H](O)CNCc1cc(OC2CCN([C@H]3C[C@](CC#N)(n4cc(-c5ncnc6[nH]ccc56)cn4)C3)CC2)nc(C(F)(F)F)c1` [Compound 25, {trans-3-(4-{[4-({[(2S)-2-hydroxypropyl]amino}methyl)-6-(trifluoromethyl)pyridin-2-yl]oxy}piperidin-1-yl)-1-[4-(7H-pyrrolo[2,3-d]pyrimidin-4-yl)-1H-pyrazol-1-yl]cyclobutyl}acetonitrile] had a pIC50 in assay [1] above 8.00. Also, in assay [2], the JAK2/JAK1 is on record as above 10.

`N#CC[C@]1(n2cc(-c3ncnc4[nH]ccc34)cn2)C[C@H](N2CCC(Oc3cc(CCO)cc(C(F)(F)F)n3)CC2)C1` [Compound 26, {trans-3-(4-{[4-(2-hydroxyethyl)-6-(trifluoromethyl)pyridin-2-yl]oxy}piperidin-1-yl)-1-[4-(7H-pyrrolo[2,3-d]pyrimidin-4-yl)-1H-pyrazol-1-yl]cyclobutyl}acetonitrile] gave a pIC50 in assay [1] above 8.00. In assay [2], the JAK2/JAK1 is given as above 10.
